This is an account of results in ChEMBL document CHEMBL1132615, “Structure--activity relationships of lysophosphatidic acid: conformationally restricted backbone mimetics” (J Med Chem, 1999).

The structures appear in SMILES notation. Some results are limits rather than exact numbers.

The nature of one assay: Relative potency was evaluated for its ability to mobilize intracellular calcium in MDA MB231 cells.*did not reach a maximal response at the highest concentration used. In kind it is functional, cell-based. The conditions noted are these: Homo sapiens, MDA-MB-231. A general note: Calcium flux is commonly read through the fluorescence of an indicator in the cells.
In the case of `CCCCCC/C=C\CCCCCCCC(=O)Oc1cccc(OP(=O)(O)O)c1`, the EC50 came to 850 nM. On to `CCCCCCCC(=O)Oc1ccc(C(=O)c2ccc(OP(=O)(O)O)cc2)cc1`, for which the EC50 is greater than 500000 nM. As to `CCCCCCCCCCCCCC(=O)Oc1ccc(C(=O)c2ccc(OP(=O)(O)O)cc2)cc1`, the EC50 is 1990 nM.

For `CCCCCCCC/C=C\CCCCCCCC(=O)NCCOP(=O)(O)O`, the EC50 is 3 nM. Regarding `CCCCCCCCCCCC(=O)Oc1ccc(C(=O)c2ccc(OP(=O)(O)O)cc2)cc1`, the EC50 amounted to 4710 nM. The same measure, in the same setting: the figure for `CCCCCCCCCCCCCCCC(=O)Nc1ccc(OP(=O)(O)O)cc1` is 1560 nM.

Turning to `CCCCCCCCCC(=O)Oc1ccc(C(=O)c2ccc(OP(=O)(O)O)cc2)cc1`, the EC50 is greater than 500000 nM.

A short description of another assay: Relative potency was evaluated for its ability to mobilize intracellular calcium in MDA MB231 cells. In kind it is functional, cell-based. The conditions noted are these: Homo sapiens, MDA-MB-231.
Take `CCCCCCCCCCCCCCCC(=O)Nc1cccc(OP(=O)(O)O)c1`: the EC50 stood at 460 nM. In the case of `CCCCCCCC/C=C\CCCCCCCC(=O)OCC(O)COP(=O)(O)O` (single isomer, unassigned) [LYSOPHOSPHATIDIC ACID], the EC50 came out at 5 nM. On the same count and under the same terms, the figure for `CCCCCC/C=C\CCCCCCCC(=O)Nc1ccc(OP(=O)(O)O)cc1` is 1830 nM. Regarding `CCCCCC/C=C\CCCCCCCC(=O)Nc1cccc(OP(=O)(O)O)c1`, the EC50 turned out to be 460 nM. On to `CCCCCCCCCCCCCCCC(=O)Oc1cccc(OP(=O)(O)O)c1`, for which the EC50 came to 310 nM.

By EC50 is commonly meant the midpoint of the concentration-response curve.
